The results in this text go back to patent publication US20230331827A1, “POTASSIUM CHANNEL INHIBITORS” (priority 2017, published 2023).

The subject of this assay is trypsin. The experiment in a line: Phage TRF binding assay on immobilised biotinylated trypsin (monoclonal phage ELISA). As to conditions: presented on phage as direct N-terminus gene-III fusion. The procedure:
Phage display technology facilitates isolation of binders to any given target from large combinatorial repertoires based on proteins and peptides that can be presented on the surface of filamentous phage^105. In order to isolate functional knottin-antibody fusions from the KnotBody libraries multiple rounds of phage display selections on trypsin (cognate antigen for the EETI-II donor) were carried out. Phage particles were prepared by rescuing KnotBody libraries using trypsin cleavable helper phage ^102,106Two rounds of phage display selections were performed on 10 µg/ml biotinylated trypsin immobilised on Streptavidin (for Round-1) or Neutravidin (for round-2) coated Maxisorp™ immunotubes (Thermo Scientific, Cat No. 444202). In both rounds of selection, phage libraries were pre-incubated with streptavidin coated paramagnetic beads (Thermo Fisher Scientific, Cat. No. 11205D). […] Polyclonal phage preparations from round-2 selection outputs were analysed for trypsin binding using a time resolved fluorescence (TRF) binding assay. In this assay, polyclonal phage binding to biotinylated trypsin immobilised on neutravidin (Thermo Fisher Scientific, Cat. No 31000) coated Maxisorp™ plates (Thermo Scientific, Cat. No. 437111) was detected using a mouse anti-M13 antibody (GE Healthcare, Cat. No. 27-9420-01) followed by europium conjugated anti-mouse antibody (Perkin Elmer, Cat. No. AD0124). […]
For orientation: In an ELISA, binding on a coated surface is turned into a signal by an enzyme label.

For “Ecballium elaterium trypsin inhibitor-II [EETI-II, reference compound]”, the binding to trypsin entry is recorded as “no detectable binding to trypsin”.
